# Assay: Stability study for amorphous trisodium sacubitril valsartan complex (HPLC purity and PXRD on storage)
# Assay type: physicochemical
# Excerpt: In another embodiment, the present invention provides a method of packing amorphous form of sacubitril valsartan trisodium complex, comprising: placing amorphous form of sacubitril valsartan trisodium complex in LDPE bag under nitrogen atmosphere; placing the product containing Low-density polyethylene (LDPE) bag in a second LDPE bag under nitrogen atmosphere; keeping the silica gel packet between two LDPE bags and sealing; placing the second sealed bag in a triple laminated bag and sealing.
# The X-Ray powder diffraction can be measured using PANalytical X'per^3pro X-ray powder Diffractometer equipped with a Cu-anode ([λ]=1.54 Angstrom), X-ray source operated at 45 kV, 40 mA. Two-theta calibration is performed using an NIST SRM 640c Si standard. The sample was analyzed using the following instrument parameters: measuring range=3-45° 20; step size=0.01°; and Time per step=23 sec.
# In another embodiment, the present invention provides Sacubitril sodium and amorphous form of sacubitril-valsartan trisodium complex obtained by the above process, as analyzed using high performance liquid chromatography (“HPLC”) with the conditions are tabulated below:
# The amorphous form of trisodium sacubitril valsartan complex is packed in LDPE bag under nitrogen atmosphere and placed in another LDPE bag, filled with nitrogen and kept silica gel packet between the bags, tied with strip seal. Kept the bag in triple laminated sunlight barrier bag and sealed with heat sealer. The stability of the samples was tested at 25±2° C./60±5% RH and 40±2° C./75±5% RH respectively.
# [1] = 25 ± 2° C./60 ± 5% RH, 1st month
# [2] = 25 ± 2° C./60 ± 5% RH, 3rd month
# [3] = 25 ± 2° C./60 ± 5% RH, 6th month
# [4] = 40 ± 2° C./75 ± 5% RH, 1st month
# [5] = 40 ± 2° C./75 ± 5% RH, 3rd month
# [6] = 40 ± 2° C./75 ± 5% RH, 6th month
substance,measurement,setting,value
sacubitril valsartan trisodium complex,HPLC purity (%),[1],99.95%
same,PXRD,[1],Amorphous
same,HPLC purity (%),[2],99.94%
same,PXRD,[2],Amorphous
same,HPLC purity (%),[3],99.93%
same,PXRD,[3],Amorphous
same,HPLC purity (%),"25 ± 2° C./60 ± 5% RH, Initial",99.94%
same,PXRD,"25 ± 2° C./60 ± 5% RH, Initial",Amorphous
same,HPLC purity (%),[4],99.95%
same,PXRD,[4],Amorphous
same,HPLC purity (%),[5],99.93%
same,PXRD,[5],Amorphous
same,HPLC purity (%),[6],99.90%
same,PXRD,[6],Amorphous
same,HPLC purity (%),"40 ± 2° C./75 ± 5% RH, Initial",99.94%
same,PXRD,"40 ± 2° C./75 ± 5% RH, Initial",Amorphous
same,solid form on storage,"packed in LDPE/triple laminated bags, up to 6 months at real and accelerated conditions, up to about 40° C., about 25% to about 75% RH",the amorphous character was retained
same,stability at real time and accelerated conditions,stored at 25±2° C./60±5% RH for 6 months and at 40±2° C./75±5% RH for 6 months,stable

# Reference: patent US11318116B2, “Stable amorphous form of sacubitril valsartan trisodium complex and processes for preparation thereof” (Laurus Labs Limited, priority 2016, dated 2022)
